Consider 28 compounds from patent US10034879B2, “Substituted benzaldehyde compounds and methods for their use in increasing tissue oxygenation” (Global Blood Therapeutics, Inc., priority 2011, dated 2018).

Each structure is given as a SMILES string.

The first experiment addresses T1, purified Hemoglobin S (HbS) (Homo sapiens, UniProt P68871+P69905, E7V).
T1 construct: HbS was purified by a modified procedure; from tissue; host or cells: blood of homozygous sickle cell patients
In words: Oxygen equilibrium curves (OEC) in purified HbS, HEMOX analyzer, change in p50. Format: biochemical. The note with it: compound at 30 μM; 25 μM purified HbS. The procedure: Oxygen equilibrium curves (OEC) in purified Hemoglobin S (HbS) were measured by the change in p50, the partial pressure of oxygen at which the heme binding sites in the HbS sample are 50% saturated with oxygen. HbS was purified by a modified procedure (Antonini and Brunori, 1971; Heomoglobin and Myoglobin in their Reactions with Ligands; North Holland Publishing Company; Amsterdam, London) from blood obtained from homozygous sickle cell patients though the Hemoglobinopathy Center at Children's Hospital Oakland Research Institute (CHORI) with Institutional Review Board approval. Oxygen equilibrium curves were carried out with a HEMOX analyzer, (TCS Scientific, New Hope, Pa.). Five hundred μL of 250 μM purified HbS were diluted into 4.5 mL of HEMOX buffer (30 mM TES, 130 mM NaCl, 5 mM KCl, pH=7.4) resulting in a final hemoglobin concentration of 25 μM. The compounds were added at the final desired concentrations. The mixture was incubated for 45 min at 37° C. and then transferred to the Hemox sample chamber. The samples were saturated with oxygen by flushing with compressed air for 10 minutes. The samples were then flushed with pure nitrogen and the absorbance of deoxy-Hb was recorded as a function of the solution pO2. The oxygen equilibrium data was then fit to the Hill Model to obtain values for p50. The deoxygenation curves for both HbS alone (control) and HbS in the presence of compound were collected with the TCS software. The p50 for purified Hbs was typically 13.8±1.6. Delta p50 values were obtained from the p50 value for control minus the p50 value for HbS treated with compound divided by the p50 value for the control.
The compounds of Table 1 that were where tested in the assay above were all found to have positive delta p50 values. Delta p50% is calculated from [[p50(HbS)−p50(HbS treated with compound)]/p50(HbS)]×100. Table 2 below lists the delta p50% values where + indicates a delta p50% of between 0 and 29 and ++ indicates a delta p50% of 30 or greater. Unless noted otherwise, the compounds in Table 2 were tested at 30 μM.
Turning to `COc1ccc(OCc2cccc3ncccc23)c(C=O)c1` [Compound 10, 5-methoxy-2-(quinolin-5-ylmethoxy)benzaldehyde], the “delta p50” value is on record as “++ (++ indicates a delta p50% of 30 or greater)”.
Regarding `Cc1ccc(OCc2cccn3ccnc23)c(C=O)c1` [Compound 16, 2-(imidazo[1,2-a]pyridin-8-ylmethoxy)-5-methylbenzaldehyde], the “delta p50” value was “+ (+ indicates a delta p50% of between 0 and 29)”.
On to `O=Cc1ccccc1C(=O)Nc1cccn2ccnc12` [Compound 40, 2-formyl-N-(imidazo[1,2-a]pyridin-8-yl)benzamide], for which the “delta p50” value is “+ (+ indicates a delta p50% of between 0 and 29)”.
On the same count and under the same terms, the same measure for `O=Cc1ccc(F)cc1OCc1cccn2ccnc12` [Compound 14, 4-fluoro-2-(imidazo[1,2-a]pyridin-8-ylmethoxy)benzaldehyde]: “+ (+ indicates a delta p50% of between 0 and 29)”.
As to `COc1ccc(OCc2cccc3nccn23)c(C=O)c1` [Compound 37, 2-(imidazo[1,2-a]pyridin-5-ylmethoxy)-5-methoxybenzaldehyde], the “delta p50” value was “+ (+ indicates a delta p50% of between 0 and 29)”.
Still for that read-out and setting: to `O=Cc1ccccc1OCc1cccn2ccnc12` [Compound 13, 2-(imidazo[1,2-a]pyridin-8-ylmethoxy)benzaldehyde] belongs “+ (+ indicates a delta p50% of between 0 and 29)”; to `COc1ccc(OCc2cccn3ccnc23)c(C=O)c1` [Compound 1, 2-(imidazo[1,2-a]pyridin-8-ylmethoxy)-5-methoxybenzaldehyde], “++ (++ indicates a delta p50% of 30 or greater)”.
Same read-out and setting: to `O=Cc1cc(Br)ccc1OCc1cccn2ccnc12` [Compound 11, 5-bromo-2-(imidazo[1,2-a]pyridin-8-ylmethoxy)benzaldehyde] belongs “+ (+ indicates a delta p50% of between 0 and 29)”; to `COc1ccc(OCc2ccc3cncn3c2)c(C=O)c1` [Compound 34, 2-(imidazo[1,5-a]pyridin-6-ylmethoxy)-5-methoxybenzaldehyde], “+ (+ indicates a delta p50% of between 0 and 29)”.
As to `COc1ccc(OCc2ccc3nccn3c2)c(C=O)c1` [Compound 4, 2-(imidazo[1,2-a]pyridin-6-ylmethoxy)-5-methoxybenzaldehyde], the “delta p50” value was “+ (+ indicates a delta p50% of between 0 and 29)”.
On to `N#Cc1ccc(C=O)c(OCc2cccn3ccnc23)c1` [Compound 2, 4-formyl-3-(imidazo[1,2-a]pyridin-8-ylmethoxy)benzonitrile], for which the “delta p50” value is “+ (+ indicates a delta p50% of between 0 and 29)”.
On the same count and under the same terms, to `COc1ccc(OCc2cccc3c2cnn3C)c(C=O)c1` [Compound 23, 5-methoxy-2-((1-methyl-1H-indazol-4-yl)methoxy)benzaldehyde] belongs “++ (++ indicates a delta p50% of 30 or greater)”; to `N#Cc1ccc(OCc2cccn3ccnc23)c(C=O)c1` [Compound 35, 3-formyl-4-(imidazo[1,2-a]pyridin-8-ylmethoxy)benzonitrile], “+ (+ indicates a delta p50% of between 0 and 29)”; to `COc1ccc(OCc2ccn3ccnc3c2)c(C=O)c1` [Compound 8, 2-(imidazo[1,2-a]pyridin-7-ylmethoxy)-5-methoxybenzaldehyde], “+ (+ indicates a delta p50% of between 0 and 29)”.
On to `COc1ccc(OCc2cccc3[nH]ncc23)c(C=O)c1` [Compound 25, 2-((1H-indazol-4-yl)methoxy)-5-methoxybenzaldehyde], for which the “delta p50” value is “++ (++ indicates a delta p50% of 30 or greater)”.
Take `COc1ccc(OCc2cn3ccccc3n2)c(C=O)c1` [Compound 5, 2-(imidazo[1,2-a]pyridin-2-ylmethoxy)-5-methoxybenzaldehyde]: the “delta p50” value is recorded as “++ (++ indicates a delta p50% of 30 or greater)”.
Same read-out and setting: to `COc1ccc(OCc2cccn3cncc23)c(C=O)c1` [Compound 7, 2-(imidazo[1,5-a]pyridin-8-ylmethoxy)-5-methoxybenzaldehyde] belongs “++ (++ indicates a delta p50% of 30 or greater)”; to `COc1ccc(OCc2cnc3ccccn23)c(C=O)c1` [Compound 9, 2-(imidazo[1,2-a]pyridin-3-ylmethoxy)-5-methoxybenzaldehyde], “+ (+ indicates a delta p50% of between 0 and 29)”; to `COc1ccc(OCc2cn3cccc(C)c3n2)c(C=O)c1` [Compound 24, 5-methoxy-2-((8-methylimidazo[1,2-a]pyridin-2-yl)methoxy)benzaldehyde], “++ (++ indicates a delta p50% of 30 or greater)”.

The same experiment, now with this note: compound at 100 μM; 25 μM purified HbS.
With `COc1ccc(C=O)c(OCc2cccn3cncc23)c1` [Compound 6, 2-(imidazo[1,5-a]pyridin-8-ylmethoxy)-4-methoxybenzaldehyde], the “delta p50” value was “+ (100 μM) (+ indicates a delta p50% of between 0 and 29)”.
In the case of `COc1ccc(C=O)c(OCc2cccn3ccnc23)c1` [Compound 3, 2-(imidazo[1,2-a]pyridin-8-ylmethoxy)-4-methoxybenzaldehyde], the “delta p50” value is “+ (100 μM) (+ indicates a delta p50% of between 0 and 29)”.
On the same count and under the same terms, to `COc1cccc(C=O)c1OCc1cccn2ccnc12` [Compound 15, 2-(imidazo[1,2-a]pyridin-8-ylmethoxy)-3-methoxybenzaldehyde] belongs “+ (100 μM) (+ indicates a delta p50% of between 0 and 29)”; to `COc1ccc(OCc2ccnc3[nH]ccc23)c(C=O)c1` [Compound 21, 2-((1H-pyrrolo[2,3-b]pyridin-4-yl)methoxy)-5-methoxybenzaldehyde], “+ (100 μM) (+ indicates a delta p50% of between 0 and 29)”; to `COc1ccc(NC(=O)c2cccn3ccnc23)c(C=O)c1` [Compound 38, N-(2-formyl-4-methoxyphenyl)imidazo[1,2-a]pyridine-8-carboxamide], “++ (100 μM) (++ indicates a delta p50% of 30 or greater)”.
`O=Cc1ccccc1NC(=O)c1cccn2ccnc12` [Compound 39, N-(2-formylphenyl)imidazo[1,2-a]pyridine-8-carboxamide]: the “delta p50” value is “+ (100 μM) (+ indicates a delta p50% of between 0 and 29)”.
For the compound `COc1ccc(OCc2ccc3cnccn23)c(C=O)c1` [Compound 33, 5-methoxy-2-(pyrrolo[1,2-a]pyrazin-6-ylmethoxy)benzaldehyde], the “delta p50” value was “+ (100 μM) (+ indicates a delta p50% of between 0 and 29)”.
The same measure, in the same setting: to `O=Cc1ccc(Cl)cc1OCc1cccn2ccnc12` [Compound 12, 4-chloro-2-(imidazo[1,2-a]pyridin-8-ylmethoxy)benzaldehyde] belongs “+ (100 μM) (+ indicates a delta p50% of between 0 and 29)”.

In a further experiment the target is T2, HbS/A (Homo sapiens, UniProt P68871+P69905, E7V).
T2 construct: A mixture of HbS/A was purified from blood; from tissue; host or cells: blood of homozygous sickle cell patients
The experiment is described as follows: Relaxed-to-tense transition assay (R/T assay). Format: biochemical. As to conditions: compound at 9 μM; 3 μM HbS/A. The procedure:
A relaxed-to-tense transition assay (“R/T assay”) was used to determine the ability of substituted benzaldehyde compounds to maintain the high-oxygen affinity relaxed (R) state of hemoglobin under deoxygenated conditions. This ability can be expressed as a “delta R” value (i.e., the change in the time-period of the R state after hemoglobin is treated with a compound, as compared to the period without treatment with the compound). Delta R is the % R to remaining after the compounds treatment compared with no treatment (e.g. if R % without treatment is 8% while with treatment with a target compound is 48% R at 30 μM, then % R is 40% for that compound.
A mixture of HbS/A was purified from blood obtained from homozygous sickle cell patients though the Hemoglobinopathy Center at Children's Hospital Oakland Research Institute (CHORI) with Institutional Review Board approval. HbS/A (at a final concentration of 3 μM) was incubated for 1 hr at 37° C. in presence or absence of compounds in […] potassium phosphate buffer, pH=7.4 and 30 μM 2, 3 diphosphoglycerate (DPG) in 96 well plates in a final volume of 160 μl. Compounds were added at different concentrations (3 μM to 100 μM final concentrations). Plates were covered with a Mylar film. After incubation was completed the Mylar cover was removed and the plates were placed in a Spectrostar Nano plate reader previously heated at 37° C. Five minutes later, N2 (flow rate=20 L/min) was flowed through the spectrophotometer. Spectroscopic measurements (300 nm to 700 nm) were taken every 5 min for 2 hours. Data analysis was performed by using linear regression from the data retrieved for all wavelengths.
Table 4 below lists the delta R values where + indicates a delta R of between 0 and 30, ++ indicates a delta R of between 30 and 50, and +++ indicates a delta R of 50 or greater. Unless noted otherwise, the compounds in Table 2 were tested at 9 μM.
Consider `COc1ccc(OCc2cccc3ncccc23)c(C=O)c1` [Compound 10, 5-methoxy-2-(quinolin-5-ylmethoxy)benzaldehyde], for which the “delta R (%)” value is “++ (++ indicates a delta R of between 30 and 50)”.
For `COc1ccc(OCc2cccnc2)c(C=O)c1` [Compound 41, 5-methoxy-2-(pyridin-3-ylmethoxy)benzaldehyde], the “delta R (%)” value is “+ (+ indicates a delta R of between 0 and 30)”.
As to `COc1ccc(OCc2cccc3[nH]ncc23)c(C=O)c1` [Compound 25, 2-((1H-indazol-4-yl)methoxy)-5-methoxybenzaldehyde], the “delta R (%)” value was “++ (++ indicates a delta R of between 30 and 50)”.
Same read-out and setting: the same measure for `COc1ccc(OCc2cn3ccccc3n2)c(C=O)c1` [Compound 5, 2-(imidazo[1,2-a]pyridin-2-ylmethoxy)-5-methoxybenzaldehyde]: “++ (++ indicates a delta R of between 30 and 50)”.
The same measure, in the same setting: to `COc1ccc(OCc2cn3cccc(C)c3n2)c(C=O)c1` [Compound 24, 5-methoxy-2-((8-methylimidazo[1,2-a]pyridin-2-yl)methoxy)benzaldehyde] belongs “+ (+ indicates a delta R of between 0 and 30)”.
